Patent US7456291B2, “Use of a vitamin combination for the treatment of primary headaches” (priority 2000, dated 2008)
Read-outs that look alike come from different tables or passages of the source.

Key:
[1] = test system: primary headaches (common, classical, complicated migraine, cluster headache); assay: Clinical experimentation in primary headache forms, overall statements; conditions: single agent; for effectiveness in combating the forms of headache considered: systemic administration at the typical dosage used for pellagra
complicated migraine = assay: Clinical cases: treatment of complicated migraine; assay type: in vivo, human patient; conditions: 2nd series, 2nd case; 50 mg nicotinamide alone orally twice a day
cluster headaches = assay: Clinical cases: treatment of cluster headaches; assay type: in vivo, human patient; conditions: 2nd series, 4th case; 50 mg nicotinamide alone orally twice a day
Description: 4th case—a person with cluster headaches. The patient had been suffering from nocturnal headaches for about 15 years. The headaches started about 3 hours after sleep onset and presented a left orbital pain, lachrymation, nasal congestion and an oedema of the left cheek.
They continued with the therapy for another 15 days and then the dosage was halved and treatment continued for 15 days a month.
4th case—a person with cluster headaches. The patient suffered from cluster headaches that made them wake up in the night with lacerating head pains. The pains were accompanied by lachrymation and rhinorrhea.

[2] = test system: common migraine (migraine without an aura); assay: Clinical cases: treatment of common migraine (migraine without an aura); assay type: in vivo, human patient; conditions: 2nd series, 3rd case; 50 mg nicotinamide alone orally twice a day
[3] = test system: classical migraine (migraine with an aura); assay: Clinical cases: treatment of classical migraine (migraine with an aura); assay type: in vivo, human patient; conditions: 2nd series, 50 mg nicotinamide alone orally twice a day
Description: 1st case—a person with a classical migraine (or a migraine with an aura). The patient had been suffering from classical migraine symptoms for 30 years. Initially, the symptoms were located in the right temporal region and later spread to the top and to the left temple with characteristic pulsations, accompanied by photophobia, vertigo and buzzing ears. The attacks lasted for about 10 days on a monthly basis.
Later, during a migraine attack, the patient started a treatment based on 50 mg of nicotinamide+2.5 mg of riboflavin taken orally twice a day. […] During this period the patient had completely suspended the old therapy. They continued with the new treatment, according to the present invention, for another 7 days to then temporarily suspend it. Later on, the dosage was halved for 10 days a month for preventive purposes.
1st case—person one with a classical migraine (or migraine with an aura). The patient had been suffering from classical migraine symptoms for 15 years and had photophobia, flashing scotoma and vertigo. […] The symptoms were located on the right side, occurred about twice a month and lasted a week, on average. When suffering from migraines the patient could not perform any activity. The acute episodes were preceded by photophobia, buzzing ears and visual disorders (scotoma). […]

[4] = test system: primary headaches (common, classical, complicated migraine, cluster headache); conditions: human, in vivo

secondary reactions reported for high doses ([1]; systemic administration in doses well below those for hypercholesterolemy)	secondary reactions reported for high doses [4]	SMILES	effectiveness in combating the forms of headache considered [1]	time until the problem was attenuated (complicated migraine)	time until the headaches attenuated (cluster headaches)	time until the migraine was partially attenuated [2]	time until migraine symptoms attenuated ([3]; 1st case one)	complete disappearance of migraine symptoms ([3]; 1st case)	time until the migraine returned (lesser intensity) under continued treatment ([3]; 1st case)
does not lead to the secondary reactions		NC(=O)c1cccnc1 [nicotinamide]	not very effective	6 days	5 to 6 days	about 5 days	5 days	did not disappear completely	about 10 days
	does not lead to the secondary reactions	O=C(O)c1cccnc1 [nicotinic acid, 3-pyridincarboxylic acid]	not very effective						
